Experimental data from the Biogen ADME set (Fang et al. 2023).
Converted amounts (≈) assume the structure as drawn.

Details: for aqueous solubility: pH 6.8

MDR1-MDCK efflux ratio | intrinsic clearance, human liver microsomes | intrinsic clearance, rat liver microsomes | aqueous solubility | fraction unbound, human plasma | fraction unbound, rat plasma | SMILES
0.94 | ≤ 4.74 mL/min/kg | 258 mL/min/kg | 26.2 µg/mL (≈ 106 µM) |  |  | Cn1nccc1CC1CCN(C2CCCC2)CC1
7.22 | 448 mL/min/kg | 4750 mL/min/kg |  |  |  | CC(C)CN(Cc1cnn(C)c1)C(=O)c1cccc(-c2cnccn2)c1
1.55 | ≤ 4.74 mL/min/kg | ≤ 10.7 mL/min/kg | 38.7 µg/mL (≈ 179 µM) |  |  | CC(=O)Nc1ccc2nc(C)cc(O)c2c1
0.85 | 6.42 mL/min/kg | 214 mL/min/kg |  |  |  | CC1CCC(O)(CSc2nncn2C(C)C)CC1 (centres undefined)
1.5 | 4.85 mL/min/kg | 870 mL/min/kg |  |  |  | O=C(c1n[nH]c2c1COCC2)N1CCC2(C=Cc3ccccc32)CC1
0.658 |  |  | 0.68 µg/mL (≈ 1.89 µM) |  |  | Cn1cc(-c2ccnc(/C=C/c3ccc(F)cc3Br)n2)cn1
 | 39.6 mL/min/kg | 399 mL/min/kg |  |  |  | Cc1cccnc1CNC(=O)c1ccc(Cl)s1
60.6 | ≤ 4.74 mL/min/kg | 22.3 mL/min/kg | 75.6 µg/mL (≈ 201 µM) |  |  | Cc1ccc(C(=O)N2CCN(C(=O)NCC(=O)N3CCCC3)CC2)cc1F
0.808 | 47.3 mL/min/kg | 687 mL/min/kg |  |  |  | CN(C(=O)CSC(C)(C)C)c1ccccc1C#N
0.533 | 232 mL/min/kg | 337 mL/min/kg | 29.9 µg/mL (≈ 139 µM) |  |  | Nc1nc2ccccc2nc1N1CCCC1
23.6 | ≤ 4.74 mL/min/kg | 29.5 mL/min/kg |  |  |  | CCCn1cnnc1CN(C)Cc1ccc(C(F)(F)F)nc1
0.675 | 17.8 mL/min/kg | 514 mL/min/kg |  |  |  | COc1ccc(OCc2n[nH]c(-c3ncoc3C(C)C)n2)cc1
1.81 | 17.5 mL/min/kg | 4620 mL/min/kg |  |  |  | Cc1nn(C)c(C)c1-c1cc(C(C)(C)C)nc(N2CCN(C)CC2)n1
0.649 | 31.3 mL/min/kg | 353 mL/min/kg | 1.61 µg/mL (≈ 4.92 µM) |  |  | Cc1cc(C)n(-c2cccc(NC(=O)c3ccc(F)c(F)c3)c2)n1
2.71 | ≤ 4.74 mL/min/kg | ≤ 10.7 mL/min/kg | 61.2 µg/mL (≈ 228 µM) |  |  | O=C(c1ccncc1)N1CCC(c2cnccn2)CC1
 | 9.54 mL/min/kg | 19.2 mL/min/kg | 1.49 µg/mL (≈ 3.17 µM) |  |  | O=C(Nc1ccccc1-c1cn2c(CN3CCNCC3)csc2n1)c1cnc2ccccc2n1
0.573 | 7.82 mL/min/kg | 57.1 mL/min/kg | 7.94 µg/mL (≈ 27.1 µM) |  |  | Cc1noc(-c2ccc(NC(=O)Cc3ccccc3)cc2)n1
1.17 | 92.5 mL/min/kg | 2720 mL/min/kg | 37 µg/mL (≈ 101 µM) |  |  | CN(C)C1CN(c2nc(-c3cnccn3)nc3sc4c(c23)CCCC4)C1
0.764 | 64.8 mL/min/kg | 1090 mL/min/kg | 11.4 µg/mL (≈ 33.7 µM) |  |  | Cc1ccc(CN(C)C(=O)c2cn(Cc3ccccc3F)nn2)cc1

MDR1-MDCK efflux ratio | intrinsic clearance, human liver microsomes | intrinsic clearance, rat liver microsomes | aqueous solubility | fraction unbound, human plasma | fraction unbound, rat plasma | SMILES
20.4 | ≤ 4.74 mL/min/kg | 33.4 mL/min/kg | 55.1 µg/mL (≈ 178 µM) |  |  | CC(=O)N1CCCN(C(=O)Cc2csc(C(C)C)n2)CC1
0.792 | ≤ 4.74 mL/min/kg | ≤ 10.7 mL/min/kg | 40.5 µg/mL (≈ 201 µM) |  |  | NC(=O)Cn1ccc(-c2ccccc2)n1
0.186 | ≤ 4.74 mL/min/kg | ≤ 10.7 mL/min/kg |  |  |  | CC1(C)CC(CC(=O)NCCn2ccnn2)CC(C)(C)N1
0.636 | 85.1 mL/min/kg | 367 mL/min/kg | 27.9 µg/mL (≈ 106 µM) |  |  | CSCc1c(C(=O)NC(C)C)oc2ccccc12
2.51 | 13.3 mL/min/kg | 88.3 mL/min/kg |  |  |  | CCC[C@@H]1C[C@@H](C(=O)N[C@@H]([C@H]2O[C@H](SC)[C@H](O)[C@@H](O)[C@@H]2O)[C@@H](C)O)N(C)C1
11.9 | ≤ 4.74 mL/min/kg | 725 mL/min/kg | 56.4 µg/mL (≈ 217 µM) |  |  | CCCN(Cc1ccccc1)C(=O)CC1(N)CCC1
 |  |  | 66.4 µg/mL (≈ 188 µM) |  |  | CC(=O)N[C@H]1/C(=N\OC(=O)Nc2ccccc2)O[C@H](CO)[C@H](O)[C@@H]1O
2.37 | 65.8 mL/min/kg | 257 mL/min/kg | 42.3 µg/mL (≈ 115 µM) |  |  | O=C(Nc1cccc(-c2cnco2)c1)C1(c2cccc(F)c2)CCOCC1
117 | ≤ 4.74 mL/min/kg | 26.8 mL/min/kg | 48 µg/mL (≈ 141 µM) |  |  | Cc1ccccc1-n1c(CC2CCN(C(=O)C3CC3)CC2)n[nH]c1=O
2.2 |  |  | 0.45 µg/mL (≈ 1.06 µM) |  |  | CCC(C)(C)c1ccc(Oc2ccc(NC(=O)CSc3cccc[n+]3[O-])cc2)cc1
0.456 |  |  | 0.69 µg/mL (≈ 2.13 µM) |  |  | CCOC(=O)c1ccc(OCC(=O)c2c[nH]c3ccccc23)cc1
 |  |  | 23.1 µg/mL (≈ 98.4 µM) |  |  | CN1CC(=O)N(CCOc2ccccc2)C1=O
0.547 | 122 mL/min/kg | 2520 mL/min/kg | 6.12 µg/mL (≈ 21.4 µM) |  |  | Cc1ccc2c(CC(=O)NCc3cccs3)coc2c1
4.09 | ≤ 4.74 mL/min/kg | ≤ 10.7 mL/min/kg | 37.4 µg/mL (≈ 158 µM) |  |  | O=C1N=C2C=CC=CN2C12Cc1ccccc1C2
0.831 |  | 3000 mL/min/kg | 26.9 µg/mL (≈ 76.8 µM) |  |  | CC(C(=O)Nc1ccccc1)N1CCCC(c2nc3ccccc3o2)C1 (centres undefined)
76.2 | 11.6 mL/min/kg | 37.3 mL/min/kg | 29.9 µg/mL (≈ 59.7 µM) | 0.00442 | 0.00827 | Nc1n[nH]cc1-c1cc(Cl)ccc1Oc1cc(F)c(S(=O)(=O)Nc2cscn2)cc1Cl
 |  |  | 0.9 µg/mL (≈ 1.79 µM) |  |  | COCCOc1ccc(N2CCN(CCn3ncc4c3nc(N)n3nc(-c5ccco5)nc43)CC2)cc1
26.7 | ≤ 4.74 mL/min/kg | 286 mL/min/kg |  |  |  | O=C(CC[C@@H]1CCCN2CCCC[C@H]12)NCc1cnc2c(c1)CCC2
99 | ≤ 4.74 mL/min/kg | ≤ 10.7 mL/min/kg | 18.5 µg/mL (≈ 54.8 µM) |  |  | Clc1ccc(C2(c3ccc(-c4cn[nH]c4)cc3)CCNCC2)cc1

MDR1-MDCK efflux ratio | intrinsic clearance, human liver microsomes | intrinsic clearance, rat liver microsomes | aqueous solubility | fraction unbound, human plasma | fraction unbound, rat plasma | SMILES
1.95 | 16.7 mL/min/kg | 836 mL/min/kg | 2.43 µg/mL (≈ 6.97 µM) |  |  | Cc1ccc2c(C(=O)N(C)C)cc(-c3cnc(C(C)C)nc3)nc2c1C
0.545 | 62.5 mL/min/kg | 334 mL/min/kg | 35.7 µg/mL (≈ 131 µM) |  |  | COc1ccc(C)cc1-n1ccc(C(=O)NC(C)C)n1
15.1 | 13.3 mL/min/kg | 80.3 mL/min/kg | 18.7 µg/mL (≈ 53.8 µM) |  |  | CCC(=O)NCCNC(=O)c1cc(-c2ccccc2)nc2ccccc12
0.857 | 52.4 mL/min/kg | 741 mL/min/kg | 30.1 µg/mL (≈ 93.4 µM) |  |  | O=C(CCCc1cc(Cl)sc1Cl)N1CCC(O)CC1
6.72 | ≤ 4.74 mL/min/kg | 32.3 mL/min/kg | 61.6 µg/mL (≈ 174 µM) |  |  | Cc1ccc(N2CCN(C(=O)c3c(C)nc4sccn34)CC2=O)cc1
0.543 | 8.16 mL/min/kg | 192 mL/min/kg | 8.8 µg/mL (≈ 31.2 µM) |  |  | O=C(NC1(c2ccccc2)CCC1)c1cc(C2CC2)on1
2.46 | ≤ 4.74 mL/min/kg | 26.3 mL/min/kg | 38.3 µg/mL (≈ 138 µM) |  |  | O=C(NCc1cccnc1)c1cnn(-c2ccccc2)c1
0.539 | 54.2 mL/min/kg | 908 mL/min/kg | 41.6 µg/mL (≈ 129 µM) |  |  | O[C@@H]1C[C@@H](c2nc(-c3ccccc3)no2)N(Cc2ccccc2)C1
4.76 | 23.3 mL/min/kg | 131 mL/min/kg | 43.2 µg/mL (≈ 131 µM) |  |  | CN1CCc2ncnc(N3CCCN(c4nccs4)CC3)c2C1
6.55 | 373 mL/min/kg | 704 mL/min/kg | 16.6 µg/mL (≈ 31.6 µM) |  |  | Cc1ccc(-n2nc(C(C)(C)C)cc2NC(=O)Nc2ccc(OCCN3CCOCC3)c3ccccc23)cc1
 | 13.4 mL/min/kg | 34.8 mL/min/kg |  |  |  | Cc1nc(C)c(C(=O)Nc2ccc3ncccc3c2)o1
0.767 | ≤ 4.74 mL/min/kg | 17.2 mL/min/kg |  |  |  | CCc1cnccc1C(=O)Nc1cnccn1
 | 21.1 mL/min/kg | 993 mL/min/kg |  |  |  | O=[N+]([O-])c1ccc(S(=O)(=O)Nc2cccc(-c3nc4ccccc4[nH]3)c2)cc1
0.796 | 120 mL/min/kg | 967 mL/min/kg | 30.5 µg/mL (≈ 76.9 µM) |  |  | O=C(CN1CCCN(c2ccc(C(F)(F)F)cn2)CC1)Nc1cccc(F)c1
8.26 | 789 mL/min/kg | 3110 mL/min/kg |  |  |  | CC(C)c1nc(S(=O)(=O)N2CC3(CC3)c3ccccc32)c[nH]1
2.29 | ≤ 4.74 mL/min/kg |  |  | 1 |  | O=C(NC12CCCC1NCC2)c1ccc(-c2cn[nH]c2)cc1 (centres undefined)
 | 7.9 mL/min/kg | 12 mL/min/kg | 21.1 µg/mL (≈ 90.9 µM) |  |  | N#Cc1cccc(CN2CCOC[C@H](O)C2)c1
0.632 | 30.6 mL/min/kg | 681 mL/min/kg | 47.4 µg/mL (≈ 171 µM) |  |  | Cc1cc(N(C)C)nc(N(C)Cc2csc(C)n2)n1
